Results from US20230111310A1, “CARBOXYLIC ACID DERIVATIVE-SUBSTITUTED IMINO ARYL COMPOUND, PREPARATION METHOD THEREFOR, HERBICIDAL COMPOSITION AND USE THEREOF” (Qingdao Kingagroot Chemical Compound Co., Ltd., priority 2020, published 2023).

Tests used:
Assay type in all cases: in vivo
Echinochloa crusgalli = assay: Weeding effect in post-emergence stage; details: Dose 15 g/ha; level of fresh weight growth control rate
Outline: (§1)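 Pot-grown greenhouse plants sprayed at 2–3 leaf stage, 2 weeks after sowing, with compound in acetone/Tween 80 plus methyl oleate emulsifiable concentrate (1.5 liter/ha) at 500–7.5 g/ha. Growth control rated 3 weeks after treatment; mean of three replicates.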

Setaria viridis [1] = assay: Weeding effect in pre-emergence stage; details: 30 g/ha, 4 weeks
Description: (§2) The activity level criteria for plant damage (i.e., growth control rate) are as follows:
(§3) The aforementioned seeds of monocotyledonous and dicotyledonous weeds and main crops were put into a plastic pot loaded with soil and covered with 0.5-2 cm soil. The test compounds of the present invention was dissolved with acetone, then added with tween 80, diluted by a certain amount of water to reach a certain concentration, and sprayed immediately after sowing. The obtained seeds were incubated for 4 weeks in the greenhouse after spraying and the test results were observed. It was observed that the herbicide mostly had excellent effect at the application rate of 500, 250, 125, 60, 30, 15, 7.5 g/ha, especially to weeds such as Echinochloa crusgalli. Digitaria sanguinalis and Abutilon theophrasti, etc. And many compounds had good selectivity for corn, cotton, wheat, rice, soybean, and peanut etc. In addition, evaluate the weed control effect with the above activity standard level.

Abutilon theophrasti [2] = assay: Weeding effect in pre-emergence stage; details: 30 g/ha, 4 weeks
Description: as §2, §3

Capsella bursa-pastoris = assay: Weeding effect in pre-emergence stage; details: 30 g/ha, 4 weeks
Description: as §2, §3

Veronica didyma Tenore = assay: Weeding effect in pre-emergence stage; details: 30 g/ha, 4 weeks
Description: as §2, §3

Amaranthus retroflexus = assay: Weeding effect in pre-emergence stage; details: 30 g/ha, 4 weeks
Description: as §2, §3

Descurainia sophia = assay: Weeding effect in pre-emergence stage; details: 30 g/ha, 4 weeks
Description: as §2, §3

corn = assay: Pre-emergence stage, crop selectivity; details: 30 g/ha, 4 weeks
Description: as §2, §3

Soybeans = assay: Pre-emergence stage, crop selectivity; details: 30 g/ha, 4 weeks
Description: as §2, §3

cotton = assay: Pre-emergence stage, crop selectivity; details: 30 g/ha, 4 weeks
Description: as §2, §3

Peanut = assay: Pre-emergence stage, crop selectivity; details: 30 g/ha, 4 weeks
Description: as §2, §3

Setaria viridis [3] = assay: Weeding effect in post-emergence stage; details: Dose 15 g/ha; level of fresh weight growth control rate
Outline: as §1

Abutilon theophrasti [4] = assay: Weeding effect in post-emergence stage; details: Dose 15 g/ha; level of fresh weight growth control rate
Outline: as §1

Alopecurus japonicus = assay: Weeding effect in post-emergence stage; details: Dose 15 g/ha; level of fresh weight growth control rate
Outline: as §1

Digitaria sanguinalis = assay: Weeding effect in post-emergence stage; details: Dose 15 g/ha; level of fresh weight growth control rate
Outline: as §1

Eleusine indica = assay: Weeding effect in post-emergence stage; details: Dose 15 g/ha; level of fresh weight growth control rate
Outline: as §1

| Compound | Weeding effect in post-emergence stage, Echinochloa crusgalli (Echinochloa crusgalli) | activity level (growth control rate) Setaria viridis (Setaria viridis [1]) | activity level (growth control rate) Abutilon theophrasti (Abutilon theophrasti [2]) | activity level (growth control rate) Capsella bursa-pastoris (Capsella bursa-pastoris) | activity level (growth control rate) Veronica didyma Tenore (Veronica didyma Tenore) | activity level (growth control rate) Amaranthus retroflexus (Amaranthus retroflexus) | activity level (growth control rate) Descurainia sophia (Descurainia sophia) | plant damage level Corn (corn) | plant damage level Soybeans (Soybeans) | plant damage level Cotton (cotton) | plant damage level Peanut (Peanut) | Weeding effect in post-emergence stage, Setaria viridis (Setaria viridis [3]) | Weeding effect in post-emergence stage, Abutilon theophrasti (Abutilon theophrasti [4]) | Weeding effect in post-emergence stage, Alopecurus japonicus (Alopecurus japonicus) | Weeding effect in post-emergence stage, Digitaria sanguinalis (Digitaria sanguinalis) | Weeding effect in post-emergence stage, Eleusine indica (Eleusine indica) |
| --- | --- | --- | --- | --- | --- | --- | --- | --- | --- | --- | --- | --- | --- | --- | --- | --- |
| CCOC(=O)[C@@H](C)O/N=C/c1cc(-n2c(=O)n(C)c(=S)n(C)c2=O)c(F)cc1Cl [2(R)] | 5 (Level 5: growth control rate is above 85%) | 5 (Level 5: growth control rate is above 85%) | 5 (Level 5: growth control rate is above 85%) | 5 (Level 5: growth control rate is above 85%) | 5 (Level 5: growth control rate is above 85%) | 5 (Level 5: growth control rate is above 85%) | 5 (Level 5: growth control rate is above 85%) | 0 (Level 0: growth control rate is less than 5%) | 0 (Level 0: growth control rate is less than 5%) | 0 (Level 0: growth control rate is less than 5%) | 0 (Level 0: growth control rate is less than 5%) | 5 (Level 5: growth control rate is above 85%) | 5 (Level 5: growth control rate is above 85%) | 5 (Level 5: growth control rate is above 85%) | 5 (Level 5: growth control rate is above 85%) | 5 (Level 5: growth control rate is above 85%) |
| CCCOC(=O)[C@@H](C)O/N=C/c1cc(-n2c(=O)cc(C(F)(F)F)n(C)c2=O)c(F)cc1Cl [198(R)] | 5 (Level 5: growth control rate is above 85%) | 5 (Level 5: growth control rate is above 85%) | 5 (Level 5: growth control rate is above 85%) | 5 (Level 5: growth control rate is above 85%) | 5 (Level 5: growth control rate is above 85%) | 5 (Level 5: growth control rate is above 85%) | 5 (Level 5: growth control rate is above 85%) | 0 (Level 0: growth control rate is less than 5%) | 0 (Level 0: growth control rate is less than 5%) | 0 (Level 0: growth control rate is less than 5%) | 0 (Level 0: growth control rate is less than 5%) | 5 (Level 5: growth control rate is above 85%) | 5 (Level 5: growth control rate is above 85%) | 5 (Level 5: growth control rate is above 85%) | 5 (Level 5: growth control rate is above 85%) | 5 (Level 5: growth control rate is above 85%) |
| CC(C)OC(=O)[C@@H](C)O/N=C/c1cc(-n2c(=O)cc(C(F)(F)F)n(C)c2=O)c(F)cc1Cl [199(R)] | 5 (Level 5: growth control rate is above 85%) | 5 (Level 5: growth control rate is above 85%) | 5 (Level 5: growth control rate is above 85%) | 5 (Level 5: growth control rate is above 85%) | 5 (Level 5: growth control rate is above 85%) | 5 (Level 5: growth control rate is above 85%) | 5 (Level 5: growth control rate is above 85%) | 0 (Level 0: growth control rate is less than 5%) | 0 (Level 0: growth control rate is less than 5%) | 0 (Level 0: growth control rate is less than 5%) | 0 (Level 0: growth control rate is less than 5%) | 5 (Level 5: growth control rate is above 85%) | 5 (Level 5: growth control rate is above 85%) | 5 (Level 5: growth control rate is above 85%) | 5 (Level 5: growth control rate is above 85%) | 5 (Level 5: growth control rate is above 85%) |
| C=CCOC(=O)[C@@H](C)O/N=C/c1cc(-n2c(=O)cc(C(F)(F)F)n(C)c2=O)c(F)cc1Cl [208(R)] | 5 (Level 5: growth control rate is above 85%) | 5 (Level 5: growth control rate is above 85%) | 5 (Level 5: growth control rate is above 85%) | 5 (Level 5: growth control rate is above 85%) | 5 (Level 5: growth control rate is above 85%) | 5 (Level 5: growth control rate is above 85%) | 5 (Level 5: growth control rate is above 85%) | 0 (Level 0: growth control rate is less than 5%) | 0 (Level 0: growth control rate is less than 5%) | 0 (Level 0: growth control rate is less than 5%) | 0 (Level 0: growth control rate is less than 5%) | 5 (Level 5: growth control rate is above 85%) | 5 (Level 5: growth control rate is above 85%) | 5 (Level 5: growth control rate is above 85%) | 5 (Level 5: growth control rate is above 85%) | 5 (Level 5: growth control rate is above 85%) |
| C[C@@H](O/N=C/c1cc(-n2c(=O)cc(C(F)(F)F)n(C)c2=O)c(F)cc1Cl)C(=O)OCCF [216(R)] | 5 (Level 5: growth control rate is above 85%) | 5 (Level 5: growth control rate is above 85%) | 5 (Level 5: growth control rate is above 85%) | 5 (Level 5: growth control rate is above 85%) | 5 (Level 5: growth control rate is above 85%) | 5 (Level 5: growth control rate is above 85%) | 5 (Level 5: growth control rate is above 85%) | 0 (Level 0: growth control rate is less than 5%) | 0 (Level 0: growth control rate is less than 5%) | 0 (Level 0: growth control rate is less than 5%) | 0 (Level 0: growth control rate is less than 5%) | 5 (Level 5: growth control rate is above 85%) | 5 (Level 5: growth control rate is above 85%) | 4 (Level 4: growth control rate is greater than or equal to 60% and less than 85%) | 5 (Level 5: growth control rate is above 85%) | 5 (Level 5: growth control rate is above 85%) |
| CCOC(=O)COC(=O)[C@@H](C)O/N=C/c1cc(-n2c(=O)cc(C(F)(F)F)n(C)c2=O)c(F)cc1Cl [239(R)] | 5 (Level 5: growth control rate is above 85%) | 5 (Level 5: growth control rate is above 85%) | 5 (Level 5: growth control rate is above 85%) | 5 (Level 5: growth control rate is above 85%) | 5 (Level 5: growth control rate is above 85%) | 5 (Level 5: growth control rate is above 85%) | 5 (Level 5: growth control rate is above 85%) | 0 (Level 0: growth control rate is less than 5%) | 0 (Level 0: growth control rate is less than 5%) | 0 (Level 0: growth control rate is less than 5%) | 0 (Level 0: growth control rate is less than 5%) | 5 (Level 5: growth control rate is above 85%) | 5 (Level 5: growth control rate is above 85%) | 5 (Level 5: growth control rate is above 85%) | 5 (Level 5: growth control rate is above 85%) | 5 (Level 5: growth control rate is above 85%) |
